Test results taken from BigSolDB 2.1.

O=[N+]([O-])c1cc(F)c(F)cc1[N+](=O)[O-]
solubility (mole fraction)
Details | 293.15 K | 298.15 K | 303.15 K | 308.15 K | 313.15 K | 318.15 K | 323.15 K | 328.15 K | 333.15 K
in 1,2-dichloroethane | 0.000981 | 0.00112 | 0.00128 | 0.00171 | 0.00229 | 0.00314 | 0.00416 | 0.00553 | 0.00752
in benzene | 0.00143 | 0.00152 | 0.00173 | 0.00216 | 0.00286 | 0.00384 | 0.00499 | 0.00647 | 0.0086
in chloroform | 0.000875 | 0.000957 | 0.00111 | 0.00156 | 0.00237 | 0.00339 | 0.00456 | 0.00611 | –
in ethanol | 0.00011 | 0.00014 | 0.000166 | 0.000246 | 0.000339 | 0.00047 | 0.000662 | 0.000906 | 0.00121
in ethyl acetate | 0.0019 | 0.00215 | 0.00241 | 0.0028 | 0.00342 | 0.00433 | 0.00554 | 0.00735 | 0.00951
in ethyl formate | 0.00271 | 0.00284 | 0.00303 | 0.00339 | 0.00402 | 0.00493 | 0.00613 | 0.00775 | 0.01
in isopropanol | 3.1e-05 | 5e-05 | 6.4e-05 | 8.9e-05 | 0.000123 | 0.000164 | 0.000215 | 0.000296 | 0.00038
in m-xylene | 0.00176 | 0.00206 | 0.00248 | 0.00303 | 0.00368 | 0.00444 | 0.00531 | 0.0062 | 0.00722
